BindingDB's records for doi:10.1016/s0960-894x(00)00610-7 (Institute of Molecular and Cell Biology, 2001)

Target: T1, Chymotrypsin-C (Homo sapiens, UniProt Q99895)
T1 sequence (Q99895 whole entry): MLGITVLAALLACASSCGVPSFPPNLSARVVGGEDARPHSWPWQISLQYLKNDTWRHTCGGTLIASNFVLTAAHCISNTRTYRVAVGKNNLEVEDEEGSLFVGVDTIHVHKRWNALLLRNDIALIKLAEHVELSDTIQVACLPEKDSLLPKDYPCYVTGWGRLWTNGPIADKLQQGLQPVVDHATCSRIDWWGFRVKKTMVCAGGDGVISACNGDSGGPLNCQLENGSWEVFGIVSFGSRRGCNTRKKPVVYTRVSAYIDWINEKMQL
Assay: ChEBML_197813
From the text: Inhibitory activity against Serine protease chymotrypsin

Question: With C=C(c1cccc(OC(=O)N[C@@H](CC(C)C)C(=O)N(CCN(Cc2ccc(C(=O)OC)cc2)Cc2ccc(C(=O)OC)cc2)Cc2ccc(Cl)cc2)c1)c1sc(=S)n(CC(=O)OCC)c1O [4-{[(2-{(4-Chloro-benzyl)-[2-(3-{1-[3-ethoxycarbonylmethyl-4-oxo-2-thioxo-thiazolidin-(5Z)-ylidene]-ethyl}-phenoxycarbonylamino)-4-methyl-pentanoyl]-amino}-ethyl)-amino-methyl]di-benzoic acid methyl ester] as the compound, how does the IC50 read?
Answer: The IC50 was 210 µM.
